Results published in US7528252B2, “Derivatives of triazoly-imidazopyridine useful as ligands of the adenosine A2a receptor and their use as medicaments” (Sigma-Tau Industrie Farmaceutiche Riunite S.p.A., priority 2002, dated 2009).

Assays:
[1] = literature (Ongini et al.); cited from earlier work
CD1 male mice [2] = assay: Effects on spontaneous motor activity in mice; format: in vivo; details: mean ± s.e.
Procedure: For this study, type CD1 male mice (n=8) were used. The effects of the products under study and of the reference compounds were evaluated using an apparatus consisting of a Plexiglas cage (40 cm×40 cm) surrounded by a series of photocells which monitor the movements of the animals placed inside, connected a computerised system, through which, the signals are collected and later elaborated.
Tests were carried out, after endoperitoneal administration of the products. 15 minutes after treatment, the treated animals, alternating with the controls, were placed inside the cage so as to record their spontaneous movements over a total period of 45 minutes broken down into two observation intervals (15′-45′ and 45′-60′, with respect to the time after treatment).
To examine the possible effects of the compounds studied on motor activity, the following parameters were considered: horizontal activity, vertical activity: total distance.
Except for CGS 21680 (reference compound, described in EP 0 277 917, Ciba-Geigy) which was dissolved in 0.9% NaCl, the products studied were solubilised in DMSO and then diluted in Cremofor EL and 0.9% NaCl (final concentrations: DMSO 15%, Cremofor EL 15%, NaCl 0.9%.

CD1 male mice [3] = assay: Capacity of the products to induce catalepsy in mice; format: in vivo; details: 60 mg/kg, endoperitoneal, 30 minutes prior to the test
Procedure: 10 CD1 male mice were used per group. For this test, a steel bar, 10 cm long, was placed at a height of 4.5 cm above the support surface. Onto this, were placed the front legs of the animals. The presence of catalepsy was determined by measuring the time (in seconds) the animal remained in the posture placed. Later, this parameter was placed relatively, on a scale of rising values (0 to 5) through which, the degree of catalepsy determined in both control animals and in these subjected to treatment with the substances under test could be proportionately expressed.
The reference products and these in this study were administered endoperitoneally, in a volume of 10 ml/kg, 30 minutes prior to the test.
Except for CGS 21680 (reference compound) which was dissolved in 0.9% NaCl, the products in the study and the control antagonist ZM 241385 were solubilised in DMSO and then diluted in Cremofor EL and 0.9% NaCl (final concentrations: DMSO 15%, Cremofor EL 15%, NaCl 0.9%).

[4] = El Yacoubi M; et al Eur. J. Pharm. 401 (2000) 63-77; cited from earlier work
[5] = 15 mg/kg endoperitoneal, interval 15′-45′ from treatment
[6] = 15 mg/kg endoperitoneal, interval 45′-60′ from treatment
[7] = 30 mg/kg endoperitoneal, interval 15′-45′ from treatment
[8] = 30 mg/kg endoperitoneal, interval 45′-60′ from treatment
[9] = 60 mg/kg endoperitoneal, interval 15′-45′ from treatment
[10] = 60 mg/kg endoperitoneal, interval 45′-60′ from treatment

CCn1c(=O)c2c(nc(/C=C/c3ccc(OC)c(OC)c3)n2C)n(CC)c1=O [KW-6002]
photoisomerisation of the ethylenic bond (stability) [1]: subject to loss of activity through photoisomerisation of the ethylenic bond

Nc1nc(NCCc2ccc(O)cc2)nc2nc(-c3ccco3)nn12 [ZM 241385, reference compound]
Horizontal activity (CD1 male mice [2]; [5]): 8706 ± 473 | Total distance (CD1 male mice [2]; [5]): 2280 ± 242 | Vertical activity (CD1 male mice [2]; [5]): 680 ± 64 | Horizontal activity (CD1 male mice [2]; [6]): 4148 ± 241 | Total distance (CD1 male mice [2]; [6]): 1022 ± 130 | Vertical activity (CD1 male mice [2]; [6]): 362 ± 78 | Horizontal activity (CD1 male mice [2]; [7]): 7035 ± 709 | Total distance (CD1 male mice [2]; [7]): 1725 ± 186 | Vertical activity (CD1 male mice [2]; [7]): 613 ± 102 | Horizontal activity (CD1 male mice [2]; [8]): 3505 ± 375 | Total distance (CD1 male mice [2]; [8]): 783 ± 165 | Vertical activity (CD1 male mice [2]; [8]): 282 ± 37 | Horizontal activity (CD1 male mice [2]; [9]): 7790 ± 980 | Total distance (CD1 male mice [2]; [9]): 2250 ± 401 | Vertical activity (CD1 male mice [2]; [9]): 570 ± 129 | Horizontal activity (CD1 male mice [2]; [10]): 4241 ± 407 | Total distance (CD1 male mice [2]; [10]): 1131 ± 158 | Vertical activity (CD1 male mice [2]; [10]): 264 ± 56 | appearance of catalepsy in mice (FIG. 1) (CD1 male mice [3]): none of them brought about the appearance of catalepsy in mice, analogous to the reference antagonist | bioavailability in vivo [4]: very low bioavailability
